# According to patent publication US7202261B2, “Calcilytic compounds” (NPS Pharmaceuticals, Inc., priority 1996, dated 2007):
# Counter-ions that a name gives are not always drawn.
# Tested on: Parathyroid cells
# Assay: not given
# Details: read-out: EC50 for mobilization of intracellular calcium; cited from earlier work
row,Compound,EC50 [µM]
1,[H]/N=C(/N)N[C@H]1[C@H](O)[C@@H](O)[C@H](O[C@@H]2O[C@@H](C)[C@](O)(C=O)[C@H]2O[C@@H]2O[C@@H](CO)[C@H](O)[C@@H](O)[C@@H]2NC)[C@@H](N/C(N)=N\[H])[C@@H]1O [streptomycin],600
2,gentamicin,150

# Target: T1, human calcium receptor (Homo sapiens, UniProt P41180)
# T1 construct: expressed in transfected cells
# T1 sequence (P41180 20-1078): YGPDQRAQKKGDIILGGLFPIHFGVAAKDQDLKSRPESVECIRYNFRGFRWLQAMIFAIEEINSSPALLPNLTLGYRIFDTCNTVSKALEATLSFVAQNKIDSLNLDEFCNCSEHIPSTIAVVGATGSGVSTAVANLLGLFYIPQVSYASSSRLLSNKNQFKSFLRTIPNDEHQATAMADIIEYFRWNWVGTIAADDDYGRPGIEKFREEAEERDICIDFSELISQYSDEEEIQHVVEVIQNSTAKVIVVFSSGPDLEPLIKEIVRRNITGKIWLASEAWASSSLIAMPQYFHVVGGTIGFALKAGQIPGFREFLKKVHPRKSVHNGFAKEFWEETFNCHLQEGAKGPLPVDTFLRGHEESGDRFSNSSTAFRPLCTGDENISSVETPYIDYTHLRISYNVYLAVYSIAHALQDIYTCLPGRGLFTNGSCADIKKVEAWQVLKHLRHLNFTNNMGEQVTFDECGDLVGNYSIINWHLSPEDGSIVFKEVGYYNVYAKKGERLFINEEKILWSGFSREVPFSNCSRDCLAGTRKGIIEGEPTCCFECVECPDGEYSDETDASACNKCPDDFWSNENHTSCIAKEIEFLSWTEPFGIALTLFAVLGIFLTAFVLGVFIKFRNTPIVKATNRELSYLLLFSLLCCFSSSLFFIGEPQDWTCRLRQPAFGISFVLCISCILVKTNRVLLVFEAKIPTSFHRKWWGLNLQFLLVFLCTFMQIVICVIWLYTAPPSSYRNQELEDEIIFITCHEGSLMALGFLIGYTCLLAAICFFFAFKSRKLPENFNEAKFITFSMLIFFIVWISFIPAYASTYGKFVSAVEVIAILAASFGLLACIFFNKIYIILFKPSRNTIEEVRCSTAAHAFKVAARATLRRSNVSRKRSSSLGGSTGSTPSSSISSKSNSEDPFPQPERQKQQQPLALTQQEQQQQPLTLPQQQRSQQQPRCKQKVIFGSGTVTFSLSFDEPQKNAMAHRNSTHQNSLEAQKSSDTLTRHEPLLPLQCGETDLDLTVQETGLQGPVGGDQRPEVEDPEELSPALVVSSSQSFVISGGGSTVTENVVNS
# Assay: Calcium Receptor Inhibitor Assay
# Assay type: cell-based
# Details: HEK 293 4.0–7 cells stably expressing the human calcium receptor; fluo-3; read-out: IC50 for blocking increases of intracellular Ca2+ elicited by extracellular Ca2+
# How it was run: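 Intracellular Ca^2+ measured with fluo-3 at 37° C in stirred cell suspension. Buffer held 1 mM CaCl2 and 1 mg/mL D-glucose. Compound or vehicle added 90 seconds before extracellular Ca^2+ was raised from 1 to 2 mM, and calcilytic activity scored as concentration-dependent block of the intracellular Ca^2+ rise.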
row,Compound,IC50 [µM]
1,"COc1ccc(CC(C)(C)NCC(O)COc2ccc(C#N)cc2)cc1 (stereo not shown) [Compound 161, N-(2-hydroxy-3-(4-cyanophenoxy)propyl]-1,1-dimethyl-2-(4-methoxyphenyl)ethylamine Hydrochloride]",< 10
2,"CCCN(CCC)S(=O)(=O)c1ccc(OC[C@H](O)CNC(C)(C)Cc2ccc(OC)cc2)c(Cl)c1Cl [Compound 165, N-[2(R)-Hydroxy-3-[(2,3-dichloro-4-dipropylsulfamoyl)phenoxyl-1-propyl]-N-[1,1-dimethyl-2-(4-methoxyphenyl)ethyl]amine hydrochloride salt]",< 1

# The remaining lines, values ahead:
row,IC50 [µM],Compound
1,< 1,"COc1ccc(CC(C)(C)NCC(O)COc2cccc(C#N)c2)cc1 (stereo not shown) [Compound 160, N-[2-hydroxy-3-(3-cyanophenoxy)propyl]-1,1-dimethyl-2-(4-methoxyphenyl)ethylamine Hydrochloride]"
2,< 1,CC(C)(Cc1ccc(Cl)c(Cl)c1)NC[C@@H](O)COc1c(C#N)sc2ccccc12 [Compound 166]
3,< 1,COc1ccc(CC(C)(C)NC[C@@H](O)COc2ccc3c(c2)[nH]c2ccccc23)cc1 [Compound 167]
